Reference: patent publication US8314253B2, “Bridged tetrahydronaphthalene derivatives” (Actelion Pharmaceuticals Ltd., priority 2008, dated 2012)

tested on: human Cav3.1 Cav3.2 or Cav3.3 channel; experiment: In vitro assay T channel (FLIPR, Ca2+-induced fluorescence); assay type: cell-based; conditions: HEK293 cells expressing human Cav3.1 Cav3.2 or Cav3.3; 10 mM Ca2+; determined up to 10 μM; read-out: T channel antagonistic activity IC50
Protocol: Human embryonic kidney (HEK293) cells expressing the human Cav3.1 Cav3.2 or Cav3.3 channel, respectively, are grown in culture medium (DMEM containing 10% heat-inactivated fetal calf serum (FCS), 100 U/ml penicillin, 100 μg/ml streptomycin and 1 mg/ml G418). The cells are seeded at 20.000 cells/well into 384-well black clear bottom sterile plates (poly-L-lysine-coated, Becton Dickinson). The seeded plates are incubated overnight at 37° C. in 5% CO2. The Ca^2+ solution is prepared as 100 mM stock solution in 100 mM tetraethylammoniumchloride (TEA-chloride), 50 mM HEPES, 2.5 mM CaCl2, 5 mM KCl, 1 mM MgCl2, adjusted to pH 7.2 with TEA-hydroxide, for use in the assay at a final concentration of 10 mM. […] Fluorescence is measured for each well at 2 second intervals for 8 minutes, and the area under the curve of each fluorescence peak is compared to the area of the fluorescence peak induced by 10 mM Ca^2+ with vehicle in place of antagonist.

IC50	SMILES
2900 nM	CN(CCCc1nc2ccccc2[nH]1)CCC1(O)CC2CCC1c1ccccc12 (single isomer, unassigned) [Example 2, (1S,8S,9S)-9-(2-{[3-(1H-Benzoimidazol-2-yl)-propyl]-methyl-amino}-ethyl)-tricyclo[6.2.2.0^2,7]dodeca-2,4,6-trien-9-ol or (1R,8R,9R)-9-(2-{[3-(1H-benzoimidazol-2-yl)-propyl]-methyl-amino}-ethyl)-tricyclo[6.2.2.0^2,7]dodeca-2,4,6-trien-9-ol]
751 nM	CC(C)C(=O)O[C@@]1(CCN2CCC(c3nc4ccccc4[nH]3)CC2)C[C@H]2CC[C@@H]1c1ccccc12 (relative stereo) [Example 6A, rac-Isobutyric acid (1R*,8R*,9R*)-9-{2-[4-(1H-benzoimidazol-2-yl)-piperidin-1-yl]-ethyl}-tricyclo[6.2.2.0^2,7]dodeca-2,4,6-trien-9-yl ester]
1110 nM	CC(C)C(=O)O[C@@]1(CCN2CCCC(c3nc4ccccc4[nH]3)C2)C[C@H]2CC[C@@H]1c1ccccc12 (relative stereo) [Example 7A, Isobutyric acid (1R*,8R*,9R*)-9-{2-[(3RS)-3-(1H-benzoimidazol-2-yl)-piperidin-1-yl]-ethyl}-tricyclo[6.2.2.0^2,7]dodeca-2,4,6-trien-9-yl ester]
736 nM	COc1ccc(C)c2[nH]c(CCCN(C)CCC3(O)CC4CCCC3c3ccccc34)nc12 (single isomer, unassigned) [Example 14, (1S,8S,12S)-12-(2-{[3-(4-Methoxy-7-methyl-1H-benzoimidazol-2-yl)-propyl]-methyl-amino}-ethyl)-tricyclo[6.3.2.0^2,7]trideca-2,4,6-trien-12-ol or (1R,8R,12R)-12-(2-{[3-(4-methoxy-7-methyl-1H-benzoimidazol-2-yl)-propyl]-methyl-amino}-ethyl)-tricyclo[6.3.2.0^2,7]trideca-2,4,6-trien-12-ol]
1580 nM	CN(CCCc1nc2ccccc2[nH]1)CC[C@]1(O)C[C@H]2CCC[C@@H]1c1ccccc12 (relative stereo) [Example 10, rac-(1R*,8R*,12R*)-12-(2-{[3-(1H-Benzoimidazol-2-yl)-propyl]-methyl-amino}-ethyl)-tricyclo[6.3.2.0^2,7]trideca-2,4,6-trien-12-ol]
783 nM	CC(C)C(=O)OC1(CCN(C)CCCc2nc3ccccc3[nH]2)CC2CCCC1c1ccccc12 [Example 12A, Isobutyric acid (1S,8S,12S)-12-(2-{[3-(1H-Benzoimidazol-2-yl)-propyl]-methyl-amino}-ethyl)-tricyclo[6.3.2.0^2,7]trideca-2,4,6-trien-12-yl ester or isobutyric acid (1R,8R,12R)-12-(2-{[3-(1H-benzoimidazol-2-yl)-propyl]-methyl-amino}-ethyl)-tricyclo[6.3.2.0^2,7]trideca-2,4,6-trien-12-yl ester]
514 nM	COc1ccc(C)c2[nH]c(CCCN(C)CC[C@@]3(OC(=O)CC(F)(F)F)C[C@@H]4CCC[C@H]3c3ccccc34)nc12 [Example 14B, 3,3,3-Trifluoro-propionic acid (1S,8S,12S)-12-(2-{[3-(4-methoxy-7-methyl-1H-benzoimidazol-2-yl)-propyl]-methyl-amino}-ethyl)-tricyclo[6.3.2.0^2,7]trideca-2,4,6-trien-12-yl ester or 3,3,3-trifluoro-propionic acid (1R,8R,12R)-12-(2-{[3-(4-methoxy-7-methyl-1H-benzoimidazol-2-yl)-propyl]-methyl-amino}-ethyl)-tricyclo[6.3.2.0^2,7]trideca-2,4,6-trien-12-yl ester]
1360 nM	O[C@@]1(CCN2CCC(c3nc4ccccc4[nH]3)CC2)C[C@H]2CC[C@@H]1c1ccccc12 (relative stereo) [Example 6, rac-(1R*,8R*,9R*)-9-{2-[4-(1H-Benzoimidazol-2-yl)-piperidin-1-yl]-ethyl}-tricyclo[6.2.2.0^2,7]dodeca-2,4,6-trien-9-ol]
1850 nM	CN(CCCc1nc2ccccc2[nH]1)CC[C@]1(O)C[C@H]2CC[C@@H]1c1cc(F)c(F)cc12 (relative stereo) [Example 9, rac-(1R*,8R*,9R*)-9-(2-{[3-(1H-Benzoimidazol-2-yl)-propyl]-methyl-amino}-ethyl)-4,5-difluoro-tricyclo[6.2.2.0^2,7]dodeca-2,4,6-trien-9-ol]
> 10000 nM	CN(CCCc1nc2ccccc2[nH]1)CC[C@@]1(O)C[C@H]2CC[C@@H]1c1ccccc12 (relative stereo) [Example 5, rac-(1R*,8R*,9S*)-9-(2-{[3-(1H-Benzoimidazol-2-yl)-propyl]-methyl-amino}-ethyl)-tricyclo[6.2.2.0^2,7]dodeca-2,4,6-trien-9-ol]
1220 nM	CO[C@@]1(CCN(C)CCCc2nc3ccccc3[nH]2)C[C@H]2CC[C@@H]1c1ccccc12 (relative stereo) [Example 4, rac-(1R*,8R*,9R*)-[3-(1H-Benzoimidazol-2-yl)-propyl]-[2-(9-methoxy-tricyclo[6.2.2.0^2,7]dodeca-2,4,6-trien-9-yl)-ethyl]-methyl-amine]
1220 nM	COc1cccc2[nH]c(CCCN(C)CCC3(O)CC4CCCC3c3ccccc34)nc12 (single isomer, unassigned) [Example 13, (1S,8S,12S)-12-(2-{[3-(4-Methoxy-1H-benzoimidazol-2-yl)-propyl]-methyl-amino}-ethyl)-tricyclo[6.3.2.0^2,7]trideca-2,4,6-trien-12-ol or (1R,8R,12R)-12-(2-{[3-(4-methoxy-1H-benzoimidazol-2-yl)-propyl]-methyl-amino}-ethyl)-tricyclo[6.3.2.0^2,7]trideca-2,4,6-trien-12-ol]
631 nM	CN(CCCc1nc2ccccc2[nH]1)CCC1(O)CC2CCCC1c1ccccc12 (single isomer, unassigned) [Example 12, (1S,8S,12S)-12-(2-{[3-(1H-Benzoimidazol-2-yl)-propyl]-methyl-amino}-ethyl)-tricyclo[6.3.2.0^2,7]trideca-2,4,6-trien-12-ol or (1R,8R,12R)-12-(2-{[3-(1H-benzoimidazol-2-yl)-propyl]-methyl-amino}-ethyl)-tricyclo[6.3.2.0^2,7]trideca-2,4,6-trien-12-ol]
2850 nM	CN(CCCc1nc2ccccc2[nH]1)CC[C@]1(O)C[C@H]2CC[C@@H]1c1ccccc12 (relative stereo) [Example 1, rac-(1R*,8R*,9R*)-9-(2-{[3-(1H-Benzoimidazol-2-yl)-propyl]-methyl-amino}-ethyl)-tricyclo[6.2.2.0^2,7]dodeca-2,4,6-trien-9-ol]
1530 nM	COCC(=O)O[C@@]1(CCN(C)CCCc2nc3ccccc3[nH]2)C[C@H]2CC[C@@H]1c1ccccc12 (relative stereo) [Example 1A, rac-Methoxy-acetic acid (1R*,8R*,9R*)-9-(2-{[3-(1H-benzoimidazol-2-yl)-propyl]-methyl-amino}-ethyl)-tricyclo[6.2.2.0^2,7]dodeca-2,4,6-trien-9-yl ester]
1790 nM	CC(C)C(=O)OC1(CCN(C)CCCc2nc3ccccc3[nH]2)CC2CCC1c1ccccc12 [Example 2A, Isobutyric acid (1S,8S,9S)-9-(2-{[3-(1H-benzoimidazol-2-yl)-propyl]-methyl-amino}-ethyl)-tricyclo[6.2.2.0^2,7]dodeca-2,4,6-trien-9-yl ester or isobutyric acid (1R,8R,9R)-9-(2-{[3-(1H-benzoimidazol-2-yl)-propyl]-methyl-amino}-ethyl)-tricyclo[6.2.2.0^2,7]dodeca-2,4,6-trien-9-yl ester]
191 nM	COc1ccc(C)c2[nH]c(CCCN(C)CCC3(OC(=O)C(C)C)CC4CCCC3c3ccccc34)nc12 [Example 14A, Isobutyric acid (1S,8S,12S)-12-(2-{[3-(4-Methoxy-7-methyl-1H-benzoimidazol-2-yl)-propyl]-methyl-amino}-ethyl)-tricyclo[6.3.2.0^2,7]trideca-2,4,6-trien-12-yl ester or isobutyric acid (1R,8R,12R)-12-(2-{[3-(4-methoxy-7-methyl-1H-benzoimidazol-2-yl)-propyl]-methyl-amino}-ethyl)-tricyclo[6.3.2.0^2,7]trideca-2,4,6-trien-12-yl ester]
544 nM	COc1cccc2[nH]c(CCCN(C)CCC3(OC(=O)C(C)C)CC4CCCC3c3ccccc34)nc12 [Example 13A, Isobutyric acid (1S,8S,12S)-12-(2-{[3-(4-Methoxy-1H-benzoimidazol-2-yl)-propyl]-methyl-amino}-ethyl)-tricyclo[6.3.2.0^2,7]trideca-2,4,6-trien-12-yl ester or isobutyric acid (1R,8R,12R)-12-(2-{[3-(4-methoxy-1H-benzoimidazol-2-yl)-propyl]-methyl-amino}-ethyl)-tricyclo[6.3.2.0^2,7]trideca-2,4,6-trien-12-yl ester]
5180 nM	CC(C)C(=O)O[C@]1(CCN(C)CCCc2nc3ccccc3[nH]2)C[C@H]2CC[C@@H]1c1ccccc12 (relative stereo) [Example 5A, rac-Isobutyric acid (1R*,8R*,9S*)-9-(2-{[3-(1H-benzoimidazol-2-yl)-propyl]-methyl-amino}-ethyl)-tricyclo[6.2.2.0^2,7]dodeca-2,4,6-trien-9-yl ester]

SMILES	IC50
O[C@@]1(CCN2CCC(c3ccccc3)(c3nc4ccccc4[nH]3)CC2)C[C@H]2CC[C@@H]1c1ccccc12 (relative stereo) [Example 8, rac-(1R*,8R*,9R*)-9-{2-[4-(1H-Benzoimidazol-2-yl)-4-phenyl-piperidin-1-yl]-ethyl}-tricyclo[6.2.2.0^2,7]dodeca-2,4,6-trien-9-ol]	953 nM
